In EP2980218A1, “Aptamer thrombin complex for use as an antidote to direct acting thrombin inhibitors” (Rheinische Friedrich-Wilhelms-Universität Bonn, priority 2014, dated 2016):

Columns and labels:
[1] = humans, after dabigatran administration; cited from earlier work
[2] = anticoagulation monitoring (anti-FIIa activity) after oral dabigatran in mice; format: in vivo; details: oral administration of 1 mg/g body weight dabigatran
Description: The in-vivo antidote properties of aptathrombin were studied in a mouse model after oral administration of 1 mg/g body weight dabigatran.

time to peak level of anti-FIIa activities [2]: 3 to 4 h
Substance: N-[2-(4-Aminoiminomethylphenylamino)-1-methyl-1H-benzimidazol-5-ylcarbonyl]-N-(2-pyridyl)-beta-alanine [dabigatran]
plasma concentration, upper limit of the peak level [1]: 280 ng/mL | time at which peak level is reached [1]: 2 to 4 h
